Experimental data reported in patent publication US6727252B1, “Methods of modulating serine/threonine protein kinase function with 5-azaquinoxaline-based compounds” (Zentaris AG, priority 1997, dated 2004).
Like-named read-outs stand apart in the source and are kept apart here.

Key:
[1] = test system: 3T3/H-Ras (NIH 3T3 clone 7 cells expressing genomic fragment of oncogenic H-Ras); experiment: Growth of NIH 3T3 cells over expressing H-Ras (SRB); format: cell-based; conditions: Mus musculus, NIH3T3, 72 h; cell growth, 2% calf serum/DMEM, 3 days with compound
Protocol: The following assay measures growth rates for NIH-3T3 cells expressing RAS. The purpose of the assay is to determine the effects of compounds on the growth of NIH 3T3 cells over expressing H-Ras.
3T3/H-Ras (NIH 3T3 clone 7 cells expressing genomic fragment of oncogenic H-Ras).
2% calf serum/DMEM+2 mM glutamine, Pen/Strep
(§1) 1. Trypsinize cells. Transfer […] of cell suspension to 10 mL of isotone. Count cells with a Coulter Counter.
2. Dilute cells in growth medium to 60,000 cell/mL. Transfer 100 µL of cells to each well in a 96-well flat bottom plate to give 6000 cells/well.
3. Use half of plate (4 rows) for each comound and quadruplicate wells for each comound concentration, and a set of 4 wells for medium control.
(§2) 4. Gently shake plates to allow for uniform attachment of the cells.
(§3) 5. Incubate the plates at 37 C in a 10% CO2 incubator.
1. In a 96-well round bottom plate, add 120 µL of growth medium containing 2×final % DMSO found in highest screening concentration of compound to columns 1 to 11. For example, if the highest concentration is […], and this is made from a 100 mM stock, 1×DMSO is 0.1%, so 2×DMSO is 0.2%. This plate is used to titrate out the compound, 4 rows per compound.
2. In a sterile 15 mL tube, make a 2×solution of the highest screening concentration of compound in growth medium plus 2×DMSO. 1 mL per cell line is needed. The starting concentration of the compound is usually 100 µM but this concentration may vary depending upon the solubility of the compound.
3. Transfer 240 µL of the 2×starting compound solution to qudruplicate wells in column 12 of the 96-well round bottom plate. Do 1:2 serial dilutions across the plate from right to left by transferring […] from column 12 to column 11, column 11 to 10 and so on through column 2. Transfer 100 µL of compound dilutions, and 100 µL of medium in column 1, onto […] medium on cells in corresponding wells of 96-well flat bottom plate. Total volume per well should be […].
4. Return the plate to the incubattor and incubate for 3 days.
(§4) 1. Aspirate or pour off medium. Add […] cold 10% TCA to each well to fix cells. Incubate plate for at least 60 min. at 4 C.
(§5) 2. Discard TCA and rinse wells 5 times with tap water. Dry plates upside down on paper towels.
(§6) 3. Stain cells with 100 µL/well 0.4% SRB for 10 min.
4. Pour of SRB and rinse wells 5 times with 1% acetic acid. Dry plates completely upside down on paper towels.
(§7) 5. Solubilize dye with 100 µL/well 10 mM Tris base for 5-10 min. on shaker.
6. Read plates on Dynatech ELISA Plate REader at 570 nm with reference at 630 nm.

[2] = test system: A549 human lung carcinoma cells; experiment: Growth of A549 cells (SRB); format: cell-based; conditions: cell growth
Protocol: The following assay measures growth rates for A549 cells. The purpose of the assay is to determine the effects of compounds on the growth of A549 human lung carcinoma cells. A549 cells are readily accessible from commercial sources, such as ATCC (CCL185). […]
as §1
2. Dilute cells in growth medium to 20,000 cell/mL. Transfer 100 µL of cells to each well in a 96-well flat bottom plate to give 2000 cells/well.
3. Use half of plate (4 rows) for each compound and quadruplicate wells for each compound concentration, and a set of 4 wells for medium control.
as §2, §3
1. In a 96 well-round bottom plate, add 120 µL of growth medium containing 2×final %DMSO found in highest screening concentration of compound to columns 1 to 11. For example, if the highest screening concentration is 100 µM, and this is made from a 100 mM stock, 1×DMSO is 0.1%, so 2×DMSO is 0.2%. This plate is used to titrate out the compound, 4 rows per compound.
2. In a sterile 15 mL tube, make a 2×solution of the highest screening concentration of compound in growth medium plus. 2×DMSO. 1 mL per cell line is needed. The starting concentration of the compound is usually 100 µM but this concentration may vary depending upon the solubility of the compound.
3. Transfer 240 µL of the 2×starting compound solution to quadruplicate wells in column 12 of the 96-well round bottom plate. Do 1:2 serial dilutions across the plate from right to left by transferring […] from column 12 to column 11, column 11 to 10 and so on through column
2. Transfer 100 µL of compound dilutions, and 100 µL of medium in column 1, onto […] medium on cells in corresponding wells of 96-well flat bottom plate. Total volume per well should be 200 L.
4. Return the plate to the incubator and incubate for 3 days.
as §4, §5, §6
4. Pour off SRB and rinse wells 5 times with 1% acetic acid. Dry plates completely upside down on paper towels.
as §7
6. Read plates on Dynatech ELISA Plate Reader at 570 nm with reference at 630 nm.

[3] = 2% FBS, read-out: IC50 (M) A549 (2% FBS)
[4] = growth medium 10% fetal calf serum in Ham's F12-K, read-out: IC50 (M) A549

melting point [°C]	IC50 [2, 3] [M]	IC50 [2, 4] [M]	SMILES	IC50 [1] [µM]
			Oc1ccc(-c2cnc3ccc(Nc4ccccc4)nc3n2)cc1 [Compound A-1, 6-Phenylamino-3-(4-hydroxyphenyl)-5-azaquinoxaline]	1.04
271 to 273	> 1e-05	2.51e-05	Oc1ccc(-c2cnc3ccc(NCc4ccccc4)nc3n2)cc1 [Compound A-2, 6-Benzylamino-3-(4-hydroxyphenyl)-5-Azaquinoxaline]	7.6
	> 1e-05	2.38e-05	Fc1ccc(CNc2ccc3nc(-c4ccccc4)c(-c4ccccc4)nc3n2)cc1 [Compound A-6, 2,3-Diphenyl-6-(4-fluorobenzylamino)-5-azaquinoxaline]	13.5
			Oc1ccc(-c2cnc3ccc(Nc4ccccc4Cl)nc3n2)cc1 [Compound A-36, 6-(2-Chlorophenylamino)3-(4-hydroxyphenyl)-5-azaquinoxaline]	0.18
			Clc1ccccc1Nc1ccc2ncc(-c3ccccc3)nc2n1 [Compound A-77, 6-(2-Chlorophenylamino)-3-phenyl-5-azaquinoxaline]	0.7
